PMC5834809 (Cancer Science, 2018)

How the values were obtained:
[1] = test system: Japanese women with HR+ ABC; settings: first‐line therapy; cited from earlier work
[2] = test system: non‐Japanese postmenopausal women with ER+ and HER2− ABC; settings: PALOMA‐1; letrozole 2.5 mg QD alone or with palbociclib 125 mg QD 3/1 schedule; cited from earlier work
[3] = test system: postmenopausal women with ER+/HER2− ABC; settings: PALOMA‐2; letrozole with or without palbociclib (3/1 schedule); cited from earlier work
[4] = test system: Japanese postmenopausal patients with ER+/HER2− advanced breast cancer; assay: Exposure to study drugs and dose modifications; type: in vivo, human; settings: for Median average duration of dose interruption (range): during total cycles
[5] = Plasma palbociclib steady-state pharmacokinetics; type: in vivo, human
[6] = test system: patients with advanced solid tumors refractory to standard therapy; settings: single‐agent, Japanese patients, phase I part 1; cited from earlier work

Row | Structure (SMILES) | Median time to progression [1] | Cycle delay ([4]; N = 42) | Dose interruption ([4]; N = 42) | Median average duration of dose interruption (range) [4] | Median average duration of cycle delay (range) ([4]; in vivo) | Median time to first dose interruption (range) ([4]; in vivo) | also measured
1 | CC(C)(C#N)c1cc(Cn2cncn2)cc(C(C)(C)C#N)c1 [anastrozole] | approximately 12 months |  |  |  |  |  | 
2 | N#Cc1ccc(C(c2ccc(C#N)cc2)n2cncn2)cc1 [letrozole] |  | 8 (19.0) n (%) | 30 (71.4) n (%) | 1.0 (1.0‐24.5) d | 7 (5‐47) d | 107 (5‐404) d | Median PFS [2]: 10.2 months; Median PFS [3]: 14.5 months
3 | C=C1C[C@@H]2[C@H](CC[C@]3(C)C(=O)CC[C@@H]23)[C@@]2(C)C=CC(=O)C=C12 [exemestane] | approximately 12 months |  |  |  |  |  | 
4 | CC(=O)c1c(C)c2cnc(Nc3ccc(N4CCNCC4)cn3)nc2n(C2CCCC2)c1=O [palbociclib] |  | 39 (92.9) n (%) | 35 (83.3) n (%) | 5.5 (1.0‐8.5) d | 7 (5‐47) d | 15 (5‐124) d | Tmax ([5]; human, plasma, oral): 4.9 h; Ctrough, predose concentration on cycle 2/day 15 ([5]; with letrozole, N = 30, geometric mean (geometric %CV)): 86.8 (40) ng/mL; Ctrough, predose concentration on cycle 1/day 15 ([5]; with letrozole, N = 32, geometric mean (geometric %CV)): 89.4 (44) ng/mL; Ctrough, predose concentration on day 15, cycles 1 and 2 ([5]; with letrozole, N = 38, geometric mean of within‐patient mean Ctrough (geometric %CV)): 90.1 (42) ng/mL; Maximum tolerated dose [6]: 125 mg; ≥1 dose reduction ([4]; N = 42): 25 (59.5) n (%); Median time to dose reduction (range), first dose reduction ([4]; in vivo): 64 (29‐232) d; Median time to dose reduction (range), second dose reduction ([4]; in vivo): 114 (64‐415) d; Patients with a dose reduction to 75 mg ([4]; maximum dose reduction, N = 42): 8 (19.0) n (%); Patients with a dose reduction to 100 mg ([4]; maximum dose reduction, N = 42): 17 (40.5) n (%)
